For the experiment, the target named is T1, human c-Met (Homo sapiens, UniProt P08581).
T1 construct: Recombinant GST-tagged cytosolic domains of human c-Met; 6xHis; made in house; host or cells: Sf9 or Sf21 insect cells (baculovirus)
T1 sequence (P08581 956-1390 limits assumed): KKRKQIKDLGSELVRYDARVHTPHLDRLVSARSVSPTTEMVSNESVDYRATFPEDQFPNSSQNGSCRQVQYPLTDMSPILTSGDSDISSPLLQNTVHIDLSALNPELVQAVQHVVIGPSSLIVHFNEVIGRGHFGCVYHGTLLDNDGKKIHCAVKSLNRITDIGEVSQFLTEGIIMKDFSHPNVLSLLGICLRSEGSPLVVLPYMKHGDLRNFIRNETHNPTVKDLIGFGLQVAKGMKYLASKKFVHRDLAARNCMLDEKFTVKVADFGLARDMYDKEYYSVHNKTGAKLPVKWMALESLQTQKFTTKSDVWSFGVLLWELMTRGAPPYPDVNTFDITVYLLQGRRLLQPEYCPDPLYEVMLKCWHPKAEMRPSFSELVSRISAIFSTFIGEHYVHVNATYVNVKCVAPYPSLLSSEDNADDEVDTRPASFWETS
Nature of the experiment: in vitro kinase assay (homogeneous time-resolved tyrosine kinase assay, METKA). The format is biochemical. The settings on record: recombinant GST-tagged c-Met cytosolic domain, HTRF, 50 μM MgATP; read-out: Biological Activity (METKA IC50) Activity Code. Summed up: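 HTRF assay with GST-tagged cytosolic c-Met domain (0.2 nM), 0.5 μM biotinylated peptide, 50 μM MgATP, pH 7.4, 5% DMSO, 80 min at room temperature; Eu-anti-pTyr/SA-APC detection, IC50 by 4-parameter fit. Other kinases identical except enzyme level: mouse c-Met 0.2, Ron 2.5, KDR 8, IGFR 0.24, EGFR 0.24, FGFR 0.14, Mer 16, TrkA 8, Tie2 8 nM.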
Broadly, the IC50 is the concentration that gives 50% inhibition. Turning to `CC(Oc1nn(-c2cnn(C)c2)ccc1=O)c1ccc2ncccc2c1` (single isomer, unassigned) [Example 138, 1-(1-methyl-1H-pyrazol-4-yl)-3-(1-quinolin-6-ylethoxy)pyridazin-4(1H)-one], the IC50 fell in the range of 100 to 1000 nM. Turning to `COCc1cn(-c2cnc3ccc(OCc4nn(-c5cnn(C)c5)ccc4=O)cc3c2)nn1` [Example 40, 3-[({3-[4-(methoxymethyl)-1H-1,2,3-triazol-1-yl]quinolin-6-yl}oxy)methyl]-1-(1-methyl-1H-pyrazol-4-yl)pyridazin-4(1H)-one], the IC50 was below 100 nM.

In the case of `Cn1cc(-n2ccc(=O)c(COc3ccc4ncc(C(=O)N5CCOCC5)cc4c3)n2)cn1` [Example 109, 1-(1-methyl-1H-pyrazol-4-yl)-3-({[3-(morpholin-4-ylcarbonyl)quinolin-6-yl]oxy}methyl)pyridazin-4(1H)-one], the IC50 lay within 1000 to 3000 nM. As for `CC(Nc1nn(-c2cnn(C)c2)ccc1=O)c1ccc2ncccc2c1` (centres unmarked) [Example 148], the IC50 was below 100 nM. As to `Cn1cc(-n2ccc(=O)c(COc3ccc4ncc(-c5cnn(C6CCNCC6)c5)cc4c3)n2)cn1` [Example 94, 1-(1-methyl-1H-pyrazol-4-yl)-3-[({3-[1-(piperidin-4-yl)-1H-pyrazol-4-yl]quinolin-6-yl}oxy)methyl]pyridazin-4(1H)-one], the IC50 was below 100 nM.

`CCn1cc(-n2ccc(=O)c(COc3ccc4ncc(-c5cccc(F)c5)cc4c3)n2)cn1` [Example 90, 1-(1-ethyl-1H-pyrazol-4-yl)-3-({[3-(3-fluorophenyl)quinolin-6-yl]oxy}methyl)pyridazin-4(1H)-one]: the IC50 is below 100 nM. Next, `COCCOc1cnc2ccc(SCc3nn(-c4cnn(C)c4)ccc3=O)cc2c1` [Example 99, 3-({[3-(2-Methoxyethoxy)quinolin-6-yl]sulfanyl}methyl)-1-(1-methyl-1H-pyrazol-4-yl)pyridazin-4(1H)-one]: below 100 nM; `Cn1cc(-n2ccc(=O)c(COc3ccc4ncc(OCC(F)F)cc4c3)n2)cn1` [Example 65, 3-({[3-(2,2-difluoroethoxy)quinolin-6-yl]oxy}methyl)-1-(1-methyl-1H-pyrazol-4-yl)pyridazin-4(1H)-one]: below 100 nM. Turning to `Cn1cc(-n2ccc(=O)c(COc3ccc4ncc(-n5cc(COC6CCNCC6)nn5)cc4c3)n2)cn1` [Example 41, 1-(1-methyl-1H-pyrazol-4-yl)-3-{[(3-{4-[(piperidin-4-yloxy)methyl]-1H-1,2,3-triazol-1-yl}quinolin-6-yl)oxy]methyl}pyridazin-4(1H)-one], the IC50 is 100 to 1000 nM. As to `COC(=O)C(Cc1nn(-c2cnn(C)c2)ccc1=O)c1ccc2ncccc2c1` (centres unmarked) [Example 150, Methyl 3-[1-(1-methyl-1H-pyrazol-4-yl)-4-oxo-1,4-dihydropyridazin-3-yl]-2-(quinolin-6-yl)propanoate], the IC50 lay in the range of 1000 to 3000 nM. As for `COCCOc1cnc2ccc(OCc3nn(-c4cnn(C)c4)ccc3=O)cc2n1` [Example 106, 3-({[3-(2-methoxyethoxy)quinoxalin-6-yl]oxy}methyl)-1-(1-methyl-1H-pyrazol-4-yl)pyridazin-4(1H)-one], the figure is below 100 nM; as for `CC(C)COC(=O)Nc1ccc(OCc2nn(-c3cnn(C)c3)ccc2=O)cc1` [Example 123, 2-methylpropyl (4-{[1-(1-methyl-1H-pyrazol-4-yl)-4-oxo-1,4-dihydropyridazin-3-yl]methoxy}phenyl)carbamate], 1000 to 3000 nM; as for `Cn1cc(-n2ccc(=O)c(CCc3ccc4nccnc4c3)n2)cn1` [Example 60, 1-(1-Methyl-1H-pyrazol-4-yl)-3-[2-(quinoxalin-6-yl)ethyl]pyridazin-4(1H)-one], 1000 to 3000 nM. `CCOc1cnc2ccc(OCc3nn(-c4cc(F)cc(F)c4)ccc3=O)cc2c1` [Example 47, 1-(3,5-difluorophenyl)-3-{[(3-ethoxyquinolin-6-yl)oxy]methyl}pyridazin-4(1H)-one]: the half-maximal inhibitory concentration (IC50) was below 100 nM.

Take `COc1ccnc2ccc(OCc3nn(-c4cnn(C)c4)ccc3=O)cc12` [Example 48, 3-{[(4-Methoxyquinolin-6-yl)oxy]methyl}-1-(1-methyl-1H-pyrazol-4-yl)pyridazin-4(1H)-one]: the IC50 is below 100 nM. Consider `O=c1ccn(-c2cc(F)c(F)c(F)c2)nc1COc1ccc2ncccc2c1` [Example 10, 3-[(quinolin-6-yloxy)methyl]-1-(3,4,5-trifluorophenyl) pyridazin-4(1H)-one], for which the IC50 is below 100 nM. As for `CCn1cc(-n2ccc(=O)c(COc3ccc4ncc(OCC(F)F)cc4c3)n2)cn1` [Example 68, 3-({[3-(2,2-difluoroethoxy)quinolin-6-yl]oxy}methyl)-1-(1-ethyl-1H-pyrazol-4-yl)pyridazin-4(1H)-one], the figure is below 100 nM; as for `O=c1ccn(-c2cccc(Br)c2)nc1COc1ccc2ncccc2c1` [Example 20, 1-(3-Bromophenyl)-3-[(quinolin-6-yloxy)methyl]pyridazin-4(1H)-one], below 100 nM; as for `CCn1cc(-n2ccc(=O)c(COc3ccc4ncc(-c5cscn5)cc4c3)n2)cn1` [Example 86, 1-(1-ethyl-1H-pyrazol-4-yl)-3-({[3-(1,3-thiazol-4-yl)quinolin-6-yl]oxy}methyl)pyridazin-4(1H)-one], below 100 nM.

For the compound `CCn1cc(-n2ccc(=O)c(COc3ccc4ncc(-c5ccc(F)cc5)cc4c3)n2)cn1` [Example 78, 1-(1-ethyl-1H-pyrazol-4-yl)-3-({[3-(4-fluorophenyl)quinolin-6-yl]oxy}methyl)pyridazin-4(1H)-one], the half-maximal inhibitory concentration (IC50) was below 100 nM.

For `Cn1cc(-n2ccc(=O)c(COc3ccc([N+](=O)[O-])cc3)n2)cn1` [Example 9, 1-(1-methyl-1H-pyrazol-4-yl)-3-[(4-nitrophenoxy)methyl] pyridazin-4(1H)-one], the IC50 was 1000 to 3000 nM. For `COCCOc1cnc2ccc(OCc3nn(-c4ccc(F)c(F)c4)ccc3=O)cc2c1` [Example 30, 1-(3,4-difluorophenyl)-3-({[3-(2-methoxyethoxy)quinolin-6-yl]oxy}methyl)pyridazin-4(1H)-one], the IC50 was below 100 nM. As for `COCCOc1cnc2ccc(OCc3nn(-c4cc(F)cc(C#N)c4)ccc3=O)cc2c1` [Example 28, 3-fluoro-5-[3-({[3-(2-methoxyethoxy)quinolin-6-yl]oxy}methyl)-4-oxopyridazin-1(4H)-yl]benzonitrile], the figure is below 100 nM; as for `CCn1cc(-n2ccc(=O)c(COc3ccc4ncc(-c5ccc(Cl)nc5)cc4c3)n2)cn1` [Example 88, 3-({[3-(6-chloropyridin-3-yl)quinolin-6-yl]oxy}methyl)-1-(1-ethyl-1H-pyrazol-4-yl)pyridazin-4(1H)-one], below 100 nM. As for `[2H]C([2H])([2H])C([2H])([2H])Oc1cnc2ccc(OCc3nn(-c4cnn(C)c4)ccc3=O)cc2c1` [Example 64, 3-[({3-[(^2H5)ethyloxy]quinolin-6-yl}oxy)methyl]-1-(1-methyl-1H-pyrazol-4-yl)pyridazin-4(1H)-one], the figure is below 100 nM. On to `COCCOc1cnc2ccc(NCc3nn(-c4cnn(C)c4)ccc3=O)cc2c1` [Example 102, 3-({[3-(2-Methoxyethoxy)quinolin-6-yl]amino}methyl)-1-(1-methyl-1H-pyrazol-4-yl)pyridazin-4(1H)-one], for which the IC50 is below 100 nM.

(Values after patent US20130116231A1, “TYROSINE KINASE INHIBITORS” (Merck Sharp & Dohme Corp., priority 2010, published 2013).)
